From ChEMBL document CHEMBL1201862, “PubChem BioAssay data set” (2004)
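These data come from cells grown in 96-well plates and exposed to compound for 48 hours at five concentrations. GI50: concentration for 50% inhibition of growth.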 Calls of active or inactive are those of the source. Rule as the data show it: active = GI50 up to about 1.1 µM and inactive = higher.

Legend:
Test in all cases: DTP human tumour cell line panel, 48 h
[1] = system: UACC-62
[2] = system: A498
[3] = system: SK-MEL-28
[4] = system: OVCAR-3
[5] = system: HT-29
[6] = system: K562
[7] = system: HOP-62
[8] = system: IGROV-1
[9] = system: SK-MEL-5
[10] = system: 786-0
[11] = system: NCI-H23
[12] = system: ACHN
[13] = system: COLO 205
[14] = system: SK-OV-3
[15] = system: RPMI-8226
[16] = system: NCI-H522
[17] = system: LOX IMVI
[18] = system: RXF 393

Compound | GI50 [1] | GI50 [2] | GI50 [3] | GI50 [4] | GI50 [5] | GI50 [6] | GI50 [7] | GI50 [8] | GI50 [9] | GI50 [10] | GI50 [11] | GI50 [12] | GI50 [13] | GI50 [14] | GI50 [15] | GI50 [16] | GI50 [17] | GI50 [18]
CCOC(=O)C(=O)CC1=Nc2ccccc2SC(c2cccc(C)c2)C1 (stereo not drawn) | 16.9 µM (inactive) | 18.1 µM (inactive) | 14.6 µM (inactive) | 19.5 µM (inactive) | 15.5 µM (inactive) | 19.7 µM (inactive) | 23.9 µM (inactive) | 18.4 µM (inactive) | 18.2 µM (inactive) | 17.9 µM (inactive) | 17.1 µM (inactive) | 16.6 µM (inactive) | > 10 µM (inactive) | > 10 µM (inactive) | 23.7 µM (inactive) | 17.3 µM (inactive) |  | 
O=C(O)c1ccc([C@@H]2C(=O)N(O)[C@@H]3C=CC[C@@H]32)cc1 | > 100 µM (inactive) |  | > 100 µM (inactive) | > 100 µM (inactive) | > 100 µM (inactive) | > 100 µM (inactive) | > 100 µM (inactive) | > 100 µM (inactive) | > 100 µM (inactive) | > 100 µM (inactive) | > 100 µM (inactive) |  | > 100 µM (inactive) | > 100 µM (inactive) | > 100 µM (inactive) | > 100 µM (inactive) | > 100 µM (inactive) | > 100 µM (inactive)
COc1cc2c(cc1OC)C(C#N)N(C(=O)c1ccccc1)C=C2OC(=O)c1ccccc1 (stereo not drawn) | 20.5 µM (inactive) |  | 22.9 µM (inactive) | 21.3 µM (inactive) | 48.5 µM (inactive) | 32.7 µM (inactive) | 17.6 µM (inactive) | 24.8 µM (inactive) | 23.9 µM (inactive) | 18.1 µM (inactive) | 44.9 µM (inactive) | 20 µM (inactive) | 46.6 µM (inactive) | 65.8 µM (inactive) | 39.2 µM (inactive) | 17.2 µM (inactive) | 39.4 µM (inactive) | 
COC1CC(OC)C(O)C(CO)O1 (stereo not drawn) | > 100 µM (inactive) |  | > 100 µM (inactive) | > 100 µM (inactive) | > 100 µM (inactive) | > 100 µM (inactive) | > 100 µM (inactive) | > 100 µM (inactive) | > 100 µM (inactive) | > 100 µM (inactive) | > 100 µM (inactive) | > 100 µM (inactive) |  | > 100 µM (inactive) |  | > 100 µM (inactive) | > 100 µM (inactive) | > 100 µM (inactive)
COC(=O)C1=CCC2c3[nH]c4ccccc4c3CCN2C1 (stereo not drawn) | > 354 µM (inactive) |  | > 354 µM (inactive) | 275 µM (inactive) | > 354 µM (inactive) | > 354 µM (inactive) | > 354 µM (inactive) | > 354 µM (inactive) | > 354 µM (inactive) | > 354 µM (inactive) | > 354 µM (inactive) | > 354 µM (inactive) | > 354 µM (inactive) | > 354 µM (inactive) | > 354 µM (inactive) | 154 µM (inactive) | > 354 µM (inactive) | > 354 µM (inactive)
C/C=C(/CCCCNCCCC)[Si](C)(C)C | 17.6 µM (inactive) | 15.5 µM (inactive) | 15.8 µM (inactive) | 14.5 µM (inactive) | 3.94 µM (inactive) | 17.6 µM (inactive) |  | 19.2 µM (inactive) | 13.3 µM (inactive) | 12.5 µM (inactive) | 16.1 µM (inactive) | 14 µM (inactive) | 11 µM (inactive) | 18 µM (inactive) |  | 11.9 µM (inactive) | 14.2 µM (inactive) | 8.65 µM (inactive)
CC(C)(C)OC(=O)N[C@H]1CC(=O)c2ccccc2N(CC(=O)O)C1=O | > 100 µM (inactive) |  | > 100 µM (inactive) | > 100 µM (inactive) | > 100 µM (inactive) |  | > 100 µM (inactive) | > 100 µM (inactive) | > 100 µM (inactive) | > 100 µM (inactive) | > 100 µM (inactive) | > 100 µM (inactive) | > 100 µM (inactive) | > 100 µM (inactive) |  | > 100 µM (inactive) | > 100 µM (inactive) | > 100 µM (inactive)
COC(=O)/C(C#N)=C1\NN=NN1c1ccc(OC)cc1 | > 100 µM (inactive) | > 100 µM (inactive) | > 100 µM (inactive) | > 100 µM (inactive) | > 100 µM (inactive) | > 100 µM (inactive) |  | > 100 µM (inactive) | > 100 µM (inactive) | > 100 µM (inactive) | > 100 µM (inactive) | > 100 µM (inactive) | > 100 µM (inactive) | > 100 µM (inactive) | > 100 µM (inactive) | > 100 µM (inactive) | > 100 µM (inactive) | > 100 µM (inactive)
CC(=O)O[C@]12CCC[C@H]1C1(O)C(O)CCC[C@H]12 (stereo partly drawn) | > 100 µM (inactive) |  | > 100 µM (inactive) |  | > 100 µM (inactive) | > 100 µM (inactive) | > 100 µM (inactive) |  | > 100 µM (inactive) | > 100 µM (inactive) | > 100 µM (inactive) | > 100 µM (inactive) | > 100 µM (inactive) | > 100 µM (inactive) | > 100 µM (inactive) | > 100 µM (inactive) | > 100 µM (inactive) | > 100 µM (inactive)
COC(CN1C=C(Sc2ccccc2)CC1)OC | 31.8 µM (inactive) | 48.2 µM (inactive) | 31 µM (inactive) | 20.2 µM (inactive) | 24.8 µM (inactive) | 20.7 µM (inactive) | 47.3 µM (inactive) | 53.2 µM (inactive) | 18.9 µM (inactive) | 36.4 µM (inactive) | 23.7 µM (inactive) | 34.6 µM (inactive) | 22.6 µM (inactive) | 37 µM (inactive) | 21.7 µM (inactive) |  | 24.8 µM (inactive) | 20.8 µM (inactive)
c1ccc2c(c1)CCC/C2=N\OCC1CO1 (stereo not drawn) | 58.6 µM (inactive) | 82 µM (inactive) |  | > 100 µM (inactive) | 98.4 µM (inactive) | 43.8 µM (inactive) | > 100 µM (inactive) | > 100 µM (inactive) | > 100 µM (inactive) | > 100 µM (inactive) | 80 µM (inactive) | 68.4 µM (inactive) | > 100 µM (inactive) | > 100 µM (inactive) | 55.1 µM (inactive) |  | 36.3 µM (inactive) | 31.8 µM (inactive)
CCCCCCCCOCC(CO)OCCCCCCCC (stereo not drawn) | 20.1 µM (inactive) | 18.8 µM (inactive) | 19.2 µM (inactive) | 19.9 µM (inactive) | 20.6 µM (inactive) | 18.4 µM (inactive) | 21.6 µM (inactive) | 21.7 µM (inactive) | 17.9 µM (inactive) | 19.6 µM (inactive) | 18.7 µM (inactive) | 17.2 µM (inactive) | 20.6 µM (inactive) | > 100 µM (inactive) | 21.7 µM (inactive) |  | 17.6 µM (inactive) | 
O=C(CSc1nc(-c2ccccc2)c(-c2ccccc2)[nH]1)NNC(=S)Nc1ccccc1 | 0.277 µM (active) | > 100 µM (inactive) | > 100 µM (inactive) | 59.8 µM (inactive) | 69.2 µM (inactive) |  | > 100 µM (inactive) | 82.4 µM (inactive) | 46.1 µM (inactive) | > 100 µM (inactive) | > 100 µM (inactive) | 85.1 µM (inactive) | 61.7 µM (inactive) | > 100 µM (inactive) | 27.6 µM (inactive) | 19.2 µM (inactive) | 71 µM (inactive) | 
